According to patent US20220339127A1, “DRUGGABLE TARGET TO TREAT RETINAL DEGENERATION” (The United States of America,as represented by the …, priority 2019, published 2022):
“Also recorded” adds a separate entry of the source.

Experiments:
L-ORD patient RPE = assay: Apical beta-hydroxybutyrate (B-hB) secretion by RPE; format: cell-based, human
Experimental: The inventors have hypothesized that increasing fatty acid oxidation and ketone body formation (B-hB) may lead to decreased lipid accumulation in the sub retinal space.
(§1) Metformin treatment consisted of 3 mM metformin added to the apical and basal media for 1½- 2 weeks.

iPSC-RPE [1] = assay: Cell area of POS-fed iPSC-RPE (ZO-1 staining, REShAPE); format: cell-based, human
Text: Accumulating evidence implicates disrupted lipid metabolism as a common pathogenic mechanism in a host of diseases including AMD (Ban et al., 2018; Xu et al., 2018). These metabolic defects are linked to long term health of RPE cells. To determine the consequence of PEDF-R deficiency in RPE cells, L-ORD iPSC-RPE and unaffected siblings were subjected to 7-day photoreceptor outersegment (POS) feeding to exacerbate the high fat-induced epithelial impairment. Concomitantly, it was investigated whether the lipid-lowering effects of metformin, an anti-diabetic drug (Schneider et al., 1990), could reverse RPE dedifferentiation and loss of polarity. Cell size, a key morphological indicator of RPE polarity, was evaluated by staining for ZO-1 (green) to identify cell borders (FIG. 18a) and employing automated image analysis algorithms in REShAPE (a cloud-computing based cell morphometry analyzer) to perform morphometric analysis of RPE cells.
(§2) Patient iPSC-RPE were treated daily beginning with the first day of POS feeding with 3 mM metformin (Fan et al., 2015; Kim et al., 2011).

iPSC-RPE [2] = assay: APOE deposition in POS-fed iPSC-RPE (integrated density); format: cell-based, human; details: for integrated density of APOE signal, apical / integrated density of APOE signal, basal: 7-days POS feeding
Experimental: as §2
White arrow indicates basal increase in APOE deposits reminiscent of APOE-rich drusen deposits in AMD (Johnson et al., 2011). […] Image J was used to draw a rectangular region of interest around the apical and basal APOE-positive staining to quantify the localized mean integrated intensity and the data is summarized in FIG. 18d.

L-ORD patient iPSC-RPE = assay: Expression of EMT-related genes in POS-fed L-ORD patient iPSC-RPE; format: cell-based, human
Text: POS feeding for 7-days also altered the expression profiles of 85 EMT-related genes in L-ORD patient iPSC-RPE (FIG. 18g).

iPSC-RPE [3] = assay: VEGF secretion ELISA under normoxia; format: cell-based, human; details: L-ORD patients, metformin 3 mM for 1½ to 2 weeks
Text: Polarized secretion of cytokines by the RPE is a hallmark of their mature and differentiated state. Under conditions that promote epithelial to mesenchymal transition (EMT), RPE lose their morphology and their secretion becomes mispolarized. Dedifferentiation of the RPE is a frequently proposed mechanism in retinal degenerations such as AMD. Typically VEGF is primarily secreted basally by the RPE. In L-ORD patients, the polarity of VEGF secretion is lost as assessed by ELISA.

Abca4−/− mice = assay: Abca4−/− mouse model, oral metformin, RPE/choroid flat-mount bodipy lipid stain
patients with AMD = assay: Retrospective cohort study of AMD patients concurrently using metformin; format: in vivo, human; details: patients ages 50-59, with metformin (n=16); 56 without (n=157)
Experimental: To determine whether there is clinical evidence that metformin could be beneficial in the treatment of AMD, a retrospective cohort study of patients presenting to Kaiser Permanante Medical with AMD was performed to test whether concurrent use of metformin by individuals affected diagnosis.
To determine whether there is clinical evidence that metformin could be beneficial in the treatment of AMD a retrospective cohort study was performed of patients presenting to Kaiser Permanante Medical with AMD to test whether concurrent use of metformin by individuals affected diagnosis.

AMPK signaling pathway = assay: Gene expression of AMPK signaling pathway in L-ORD patient RPE; format: cell-based, human; details: metformin 3 mM for 1½ to 2 weeks
Experimental: Treatment with metformin (3 mM) for 1½ to 2 weeks results in further decrease in some genes but an upregulation in others. […] In the RPE, the PEDF-R plays an important role in fatty acid metabolism.

Stargardt iRPE = assay: Ceramide levels in POS fed Stargardt iRPE; format: cell-based, human
AMPK = assay: Phospho-AMPK ELISA in iPSC-RPE of L-ORD patients and unaffected siblings; format: cell-based, human; details: L-ORD patient iPSC-RPE, 3 mM metformin, 1½-2 weeks
Experimental: Thus, in FIG. 16b iPSC-RPE were incubated with recombinant CTRP5 globular form (0.2 μg/mL gCTRP5) for 30 min in the presence (+) and absence (−) of serum to evaluate its role in AMPK signaling.
To better elucidate the ADIPOR1-CTRP5 (receptor-ligand) interaction, […] a ligand dose response curve was performed (in serum free media) by exogenously adding increasing concentrations of recombinant full length CTRP5 (FIG. 16c).
AMPK is a sensitive indicator of the cell energy status and is canonically activated by the levels of AMP or ATP (Hardie and Lin, 2017). Therefore, the AMPK activity (in serum free media) of sibling and patient iPSC-RPE under conditions (increased AMP:ATP ratio) known to stimulate AMPK phosphorylation was characterized (FIG. 16d). iPSC-RPE were incubated in serum deprived media for 5 hours (Park et al., 2009) followed by 30 mins exposure to AICAR (an AMP analogue) or BAM15 (a mitochondrial uncoupler to reduce ATP production).
as §1

iPSC-RPE [4] = assay: VEGF secretion ELISA under hypoxic conditions; format: cell-based, human; details: for VEGF secretion, apical (Ap) / VEGF secretion, basal (Ba): hypoxic conditions (6h)
Experimental: Hypoxic stress (3% 02, 6h) was employed to determine how this perturbation regulates VEGF secretion in L-ORD patient iPSC-RPE.

[5] = Mass-spectrometry analysis of metformin in eyes and plasma of treated animals; format: in vivo, mouse; details: oral dosing, data not shown
[6] = metformin treated L-ORD patients
[7] = metformin treated unaffected siblings
[8] = L-ORD patient RPE, prior metformin 2 weeks
[9] = untreated or metformin treated unaffected siblings

CN(C)C(=N)N=C(N)N [metformin]
increase in apical B-hB secretion (L-ORD patient RPE; L-ORD patient RPE, 3 mM metformin 1½-2 weeks): 25% | beta-hydroxybutyrate apical secretion (L-ORD patient RPE; metformin treatment): increased beta-hydroxybutyrate apical secretion | POS stress-induced enlargement of patient iPSC-RPE (iPSC-RPE [1]; 3 mM metformin daily from first day of POS feeding): largely prevented the POS stress-induced enlargement | cell area (iPSC-RPE [1]; L-ORD patient iPSC-RPE, 3 mM metformin during 7 days POS feeding): 117.92±0.96 um | cell area (iPSC-RPE [1]; unaffected siblings, metformin during 7 days POS feeding): 93.14±1.56 um | apical and basal APOE deposition (iPSC-RPE [2]; L-ORD patient RPE treated with metformin during POS feeding): ameliorate the accumulation of APOE-containing basal deposits; also recorded: redistribution of the relative proportions of apical and basal APOE deposition | integrated density of APOE signal, apical (iPSC-RPE [2]; [6]): 79.30±37.51 | integrated density of APOE signal, basal (iPSC-RPE [2]; [6]): 13.58±4.58 | integrated density of APOE signal, apical (iPSC-RPE [2]; [7]): 119.98±20.36 | integrated density of APOE signal, basal (iPSC-RPE [2]; [7]): 23.55±6.17 | number of EMT genes downregulated (L-ORD patient iPSC-RPE; L-ORD patient iPSC-RPE treated with metformin, <4-fold as printed): 42 genes | expression of EMT related genes (L-ORD patient iPSC-RPE; metformin during 7-days POS feeding): suppresses the expression of EMT related genes | polarized VEGF secretion (iPSC-RPE [3]): rescue of polarized VEGF secretion | polarized VEGF secretion (iPSC-RPE [3]; listed as Metformin): rescues mispolarized secretion of VEGF | hypoglycemia in treated mice (Abca4−/− mice; oral metformin 400 or 800 mg/day): do not lead to hypoglycemia | lipid levels / deposits in RPE/choroid flat-mount (Abca4−/− mice; oral metformin 400 or 800 mg/day for three months): drastically reduced lipid levels; also recorded: reduced deposits | age of onset of nonexudative age-related macular degeneration (patients with AMD): 58.5 years of age | PNPLA2 (PEDF-R) expression (AMPK signaling pathway): significant increase | reduction of ceramide levels vs vehicle (Stargardt iRPE; 3 mM metformin, wild type POS for 6 consecutive days): 3-4 fold | ceramide accumulation (Stargardt iRPE; POS-Fed Stargardt iRPE treated with metformin): dramatic reduction | sensitivity of p-AMPK to changes in the AMP:ATP ratio / AICAR (AMPK): restored sensitivity to AICAR; also recorded: regained sensitivity to AICAR; also recorded: restores the sensitivity | hypoxia-induced apical VEGF secretion (iPSC-RPE [4]; 1½ week pretreatment with metformin): alleviated the hypoxia-induced apical VEGF secretion | VEGF secretion, apical (Ap) (iPSC-RPE [4]; [8]): 0.59±0.09 | VEGF secretion, basal (Ba) (iPSC-RPE [4]; [8]): 1.8±0.24 | VEGF secretion, apical (Ap) (iPSC-RPE [4]; [9]): 0.98±0.16 | VEGF secretion, basal (Ba) (iPSC-RPE [4]; [9]): 1.64±0.33 | rescue of mispolarized VEGF secretion (iPSC-RPE [4]; hypoxic stress (3% O2, 6h), metformin for 24h, data not shown): insufficient to rescue this phenotype | amount of metformin in RPE/choroid, retina, and plasma [5]: comparable amount
